{
  "source": "patent US20250000858A1",
  "about": "“FGFR TYROSINE KINASE INHIBITORS FOR THE TREATMENT OF ADVANCED SOLID TUMORS” (JANSSEN PHARMACEUTICA NV, priority 2021, published 2025)",
  "key": {"[1]": {"assay": "Pharmacokinetic assessments (plasma concentrations, erdafitinib exposure; CYP2C9*3/*3 genotype)", "format": "in vivo, human", "conditions": "subjects with the CYP2C9*3/*3 genotype; 'may increase'", "text": "Therefore, increased adverse reactions are monitored in subjects who are known or suspected to have CYP2C9*3/*3 genotype."}, "[2]": {"conditions": "144 treated BPC subjects (safety analysis set)"}, "[3]": {"conditions": "Broad Panel Cohort, 178 treated subjects, % of subjects, AE outcome of Fatal"}},
  "note": "Where two headings read alike, the source gives them in different places.",
  "data": [
    {"smiles": "COc1cc(OC)cc(N(CCNC(C)C)c2ccc3ncc(-c4cnn(C)c4)nc3c2)c1", "note": "[erdafitinib, N-(3,5-dimethoxy-phenyl)-N′-(1-methylethyl)-N-[3-(1-methyl-1H-pyrazol-4-yl)quinoxalin-6-yl]ethane-1,2-diamine]", "values": [
      {"measurement": "TEAEs leading to death", "setting": "13 patients, BPC n=178, IA3", "result": 7.3, "unit": "%"},
      {"measurement": "Drug-related serious TEAEs", "setting": "[2]", "result": 6.3, "unit": "%"},
      {"measurement": "diarrhea (TEAE)", "setting": "[2]", "result": 54.2, "unit": "%"},
      {"measurement": "drug related TEAEs leading to death", "setting": "[2]", "result": "no drug related TEAEs leading to death"},
      {"measurement": "drug-related TEAEs leading to discontinuation", "setting": "[2]", "result": 3.5, "unit": "%"},
      {"measurement": "hyperphosphatemia (TEAE)", "setting": "[2]", "result": 65.3, "unit": "%"},
      {"measurement": "stomatitis (TEAE)", "setting": "[2]", "result": 49.3, "unit": "%"},
      {"measurement": "TEAEs leading to death", "setting": "[3]", "result": "13 (7.3%)"},
      {"measurement": "TEAEs leading to death: Drug-related", "setting": "[3]", "result": "1 (0.6%)"},
      {"measurement": "increase of exposure of erdafitinib", "setting": "[1]", "result": 50, "unit": "%"}
    ]}
  ]
}
